Source: ChEMBL document CHEMBL4706581, “Discovery of methoxy-naphthyl linked N-(1-benzylpiperidine) benzamide as a blood-brain permeable dual inhibitor of acetylcholinesterase and butyrylcholinesterase” (Eur J Med Chem, 2020)

What was measured:
Acetylcholinesterase [1] = biological target: Acetylcholinesterase (Electrophorus electricus, UniProt O42275); experiment: Inhibition of electric eel AChE using acetylthiocholine iodide as substrate preincubated for 20 mins followed by substrate addition and measured every minute for 10 mins by DTNB-reagent based Ellman's method
Cholinesterase [2] = biological target: T1, Cholinesterase (Equus caballus, UniProt P81908); experiment: Inhibition of equine serum BChE using S-butyrylthiocholine iodide as substrate preincubated for 20 mins followed by substrate addition and measured every minute for 10 mins by DTNB-reagent based Ellman's method
[3] = Effective permeability of compound by PAMPA-BBB assay; type: ADME; details: read-out: Peff
Rattus norvegicus = species on record: Rattus norvegicus; experiment: Inhibition of rat self-induced Amyloid beta (1 to 42 residues) aggregation at 10 uM incubated for 24 hrs by thioflavin-T fluorescence assay relative to control
Cholinesterase [4] = biological target: T1, Cholinesterase; experiment: Mixed type inhibition of equine serum BChE assessed as decrease in Vmax and increase in Km using varying level of S-butyrylthiocholine iodide as substrate preincubated for 20 mins followed by substrate addition and measured every minute for 10 mins by Lineweaver-Burk plot analysis
Acetylcholinesterase [5] = biological target: T2, Acetylcholinesterase (Homo sapiens, UniProt P22303); experiment: Non-competitive inhibition of recombinant human AChE assessed as decrease in Vmax with constant Km using varying level of acetylthiocholine iodide as substrate preincubated for 20 mins followed by substrate addition and measured every minute for 10 mins by Lineweaver-Burk plot analysis
Acetylcholinesterase [6] = biological target: T2, Acetylcholinesterase; experiment: Inhibition of recombinant human AChE

Acetylcholinesterase (Electrophorus electricus, UniProt O42275), sequence (O42275 whole entry): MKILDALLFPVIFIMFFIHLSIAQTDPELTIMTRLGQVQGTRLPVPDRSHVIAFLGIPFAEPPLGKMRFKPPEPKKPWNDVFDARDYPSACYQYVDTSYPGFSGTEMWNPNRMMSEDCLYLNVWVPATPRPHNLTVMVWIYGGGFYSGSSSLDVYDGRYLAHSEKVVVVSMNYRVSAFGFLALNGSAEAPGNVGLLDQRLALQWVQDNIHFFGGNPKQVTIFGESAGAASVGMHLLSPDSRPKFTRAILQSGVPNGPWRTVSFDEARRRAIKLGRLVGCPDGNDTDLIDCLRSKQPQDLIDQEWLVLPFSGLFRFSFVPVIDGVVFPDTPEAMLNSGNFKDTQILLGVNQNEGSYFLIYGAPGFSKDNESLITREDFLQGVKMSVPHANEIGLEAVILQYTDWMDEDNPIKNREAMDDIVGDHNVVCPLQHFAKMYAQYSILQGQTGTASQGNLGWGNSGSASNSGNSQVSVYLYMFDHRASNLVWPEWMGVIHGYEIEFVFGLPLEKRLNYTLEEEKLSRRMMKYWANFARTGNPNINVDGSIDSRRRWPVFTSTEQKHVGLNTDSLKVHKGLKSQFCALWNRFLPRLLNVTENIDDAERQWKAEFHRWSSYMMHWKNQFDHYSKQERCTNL
T1 sequence (P81908 whole entry): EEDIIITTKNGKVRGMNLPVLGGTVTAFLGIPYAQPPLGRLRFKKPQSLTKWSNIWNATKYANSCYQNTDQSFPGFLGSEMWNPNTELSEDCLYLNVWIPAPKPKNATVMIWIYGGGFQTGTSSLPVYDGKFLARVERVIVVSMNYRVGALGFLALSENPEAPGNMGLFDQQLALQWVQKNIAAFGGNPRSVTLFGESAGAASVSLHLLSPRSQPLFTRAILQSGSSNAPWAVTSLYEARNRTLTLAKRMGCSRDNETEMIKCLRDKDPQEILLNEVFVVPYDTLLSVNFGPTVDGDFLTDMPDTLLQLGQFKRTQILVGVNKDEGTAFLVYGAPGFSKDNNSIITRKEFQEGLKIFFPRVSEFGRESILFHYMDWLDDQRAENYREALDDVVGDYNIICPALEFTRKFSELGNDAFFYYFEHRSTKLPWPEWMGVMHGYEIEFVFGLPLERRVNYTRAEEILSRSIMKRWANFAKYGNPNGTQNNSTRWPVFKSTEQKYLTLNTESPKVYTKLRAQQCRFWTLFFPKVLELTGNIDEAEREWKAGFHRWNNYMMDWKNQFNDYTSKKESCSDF
T2 sequence (P22303 whole entry): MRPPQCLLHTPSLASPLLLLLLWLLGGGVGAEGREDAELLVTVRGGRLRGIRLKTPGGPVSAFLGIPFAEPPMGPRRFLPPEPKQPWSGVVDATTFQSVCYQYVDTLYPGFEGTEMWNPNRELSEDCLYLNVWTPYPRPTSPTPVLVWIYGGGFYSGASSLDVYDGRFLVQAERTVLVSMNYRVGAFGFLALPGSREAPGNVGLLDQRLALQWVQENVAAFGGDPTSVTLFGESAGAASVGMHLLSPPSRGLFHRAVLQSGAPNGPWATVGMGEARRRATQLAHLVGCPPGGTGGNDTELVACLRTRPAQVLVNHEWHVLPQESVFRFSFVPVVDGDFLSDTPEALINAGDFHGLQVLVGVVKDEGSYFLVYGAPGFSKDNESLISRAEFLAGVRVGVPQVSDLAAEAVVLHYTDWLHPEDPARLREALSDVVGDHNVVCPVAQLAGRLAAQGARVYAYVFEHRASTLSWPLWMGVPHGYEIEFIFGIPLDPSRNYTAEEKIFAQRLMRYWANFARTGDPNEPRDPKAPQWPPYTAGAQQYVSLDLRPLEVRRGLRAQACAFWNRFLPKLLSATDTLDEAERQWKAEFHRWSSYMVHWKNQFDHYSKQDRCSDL

Compound | IC50 (Acetylcholinesterase [1]) [nM] | IC50 (Cholinesterase [2]) [nM] | other results
COc1ccc2cc(C(=O)Nc3cc[n+](Cc4ccccc4Cl)cc3)ccc2c1 | 340 | > 1000 | –
COc1ccc2cc(C(=O)NCCc3cc[n+](Cc4ccc(F)cc4)cc3)ccc2c1 | 740 | > 1000 | –
COc1ccc2cc(C(=O)Nc3cc[n+](Cc4ccc(Cl)cc4)cc3)ccc2c1 | 900 | > 1000 | –
COc1ccc2cc(C(=O)NCCc3cc[n+](Cc4ccccc4)cc3)ccc2c1.[Br-] | 770 | 680 | Papp [3]: 1.3 ×10⁻⁶ cm/s
N#Cc1ccc(C(=O)Nc2cc[n+](Cc3ccccc3)cc2)cc1 | 469 | – | –
COc1ccc2cc(C(=O)Nc3cc[n+](Cc4ccccc4[N+](=O)[O-])cc3)ccc2c1 | 480 | > 1000 | –
COc1ccc2cc(C(=O)Nc3cc[n+](Cc4ccccc4)cc3)ccc2c1 | 218 | 1590 | –
COc1ccc(C(=O)Nc2cc[n+](Cc3ccccc3)cc2)cc1OC | 420 | – | –
COc1ccc2cc(C(=O)Nc3cc[n+](Cc4ccccc4F)cc3)ccc2c1 | 210 | > 1000 | –
COc1ccc2cc(C(=O)Nc3cc[n+](Cc4ccccc4C)cc3)ccc2c1 | 435 | > 1000 | –
O=C(Nc1cc[n+](Cc2ccccc2)cc1)c1ccc(-c2ccccc2)cc1 | 770 | > 1000 | –
O=C(Nc1cc[n+](Cc2ccccc2)cc1)c1ccc2cc(Br)ccc2c1 | 1440 | – | –
COc1ccc2cc(C(=O)NCCc3cc[n+](Cc4ccccc4F)cc3)ccc2c1 | 280 | > 1000 | –
COc1ccc2cc(C(=O)Nc3cc[n+](Cc4ccc(F)cc4)cc3)ccc2c1 | 210 | > 1000 | –
COc1ccc2cc(C(=O)NCCc3cc[n+](Cc4ccccc4[N+](=O)[O-])cc3)ccc2c1 | 280 | > 1000 | –
COc1ccc2cc(C(=O)NCCc3cc[n+](Cc4ccc([N+](=O)[O-])cc4)cc3)ccc2c1 | 740 | > 1000 | –
COc1cc(OC)cc(C(=O)Nc2cc[n+](Cc3ccccc3)cc2)c1 | 202 | – | –
COc1ccc(C(=O)Nc2cc[n+](Cc3ccccc3)cc2)cc1 | 216 | – | –
CC(C)c1ccc(C(=O)Nc2cc[n+](Cc3ccccc3)cc2)cc1 | 852 | – | –
O=C(Nc1cc[n+](Cc2ccccc2)cc1)c1ccc(OCc2ccccc2)cc1 | 360 | > 1000 | –
COc1ccc2cc(C(=O)NCCc3cc[n+](Cc4cccc(Cl)c4)cc3)ccc2c1 | 610 | > 1000 | –
CCOc1ccc(C(=O)Nc2cc[n+](Cc3ccccc3)cc2)cc1 | 201 | 12700 | –
COc1ccc2cc(C(=O)NCCC3CCN(Cc4ccccc4)CC3)ccc2c1 | – | – | inhibition (Rattus norvegicus): 25%; Papp [3]: 6.9 ×10⁻⁶ cm/s; Ki (Cholinesterase [4]): 150 nM; Ki (Acetylcholinesterase [5]): 210 nM; IC50 (Acetylcholinesterase [6]): 170 nM
COc1ccc2cc(C(=O)NCCc3cc[n+](Cc4ccccc4Cl)cc3)ccc2c1 | 500 | 830 | –
COc1ccc2cc(C(=O)NCCc3cc[n+](Cc4ccccc4C)cc3)ccc2c1 | 1080 | > 1000 | –
